Assay results from patent publication US7915285B2, “Method for treating drug and behavioral addictions” (priority 2005, dated 2011).

Key:
[1] = tested on: dopamine release in the nucleus accumbens; assay: In vivo microdialysis of nucleus accumbens dopamine (Example 3); set-up: species or system rat
Experimental: Dopamine release in the nucleus accumbens is thought to mediate the “reward” associated with drugs of abuse. […] After 3 baseline samples (20 minute inter-sample interval), morphine was administered to all rats. Dialysis samples were collected at 20 minute intervals for 180 minutes. To test behavioral withdrawal and reversal of morphine-induced dopamine, all rats were administered the opioid antagonist naloxone after the 60 minute sample time was completed.

[2] = tested on: nucleus accumbens dopamine; assay: Nucleus accumbens dopamine microdialysis after 5 days of morphine and ibudilast (Example 6); format: in vivo, rat; details: for nucleus accumbens dopamine levels: 7.5 mg/kg
Experimental: Pathogen-free adult male Sprague-Dawley rats were used in all experiments. Rats (300-325 g at the time of arrival; Harlan Labs, Madison, Wis.) were housed in temperature (23±3° C.) and light (12:12 light:dark; lights on at 0700 hours) controlled rooms with standard rodent chow and water available ad libitum. All procedures were approved by the Institutional Animal Care and Use Committee at the University of Colorado at Boulder. Upon arrival male Sprague Dawley rats (300-400 g) were housed in pairs and allowed to acclimatize to the animal colony for one week. 5×90 minute sessions of handling by investigators and animal acclimatization to the microdialysis environment were performed during the following week.
Microdialysis guide cannula implantation was performed under halothane anaesthesia. CMA 12 guide cannulae (CMA Microdialysis) were aimed at either the right or left nucleus accumbens (AP=+1.7, LM=±0.8, DV=−6.0) in a counterbalanced fashion. Coordinates were from bregma using the atlas of Paxinos and Watson (1998). The guide cannulae and a tether screw (CMA Microdialysis) were anchored to the skull with three jeweler's screws and dental cement. Rats were individually housed after surgery and allowed to recover for one week.
Animals then began a 7 day dosing regimen (groups of 6 animals at a time, n=10 per treatment group). […] Body weights were recorded prior to each dosing session to allow for accurate dose calculations and to track the opioid induced weight loss.
Microdialysis probes (CMA 12, MW cut-off 20,000 Da, 2 mm active membrane) were inserted into the guide cannulae and rats were placed in separate Plexiglas infusion bowls with food and water available ad libitum. […] Dialysates were analyzed by HPLC within 2 weeks of collection.
Dopamine in the dialysates was determined using an ESA 5600A COULARRAY detector with an ESA 5014B analytical cell and an ESA 5020 guard cell connected to an ESA HR80 column (C18, […], 80×3 mm) which was maintained at 30° C. […] Quantitative comparisons were made with external standards (Sigma-Aldrich, St Louis, Mo.) that were run each day. […]

[3] = tested on: naloxone-precipitated morphine withdrawal syndrome; assay: Rat model of naloxone-precipitated morphine withdrawal, total withdrawal score (Example 2); format: in vivo
Experimental: Drug stability and concentration were validated by HPLC/MS/MS.
Pathogen-free adult male Sprague-Dawley rats (280-350 g; Harlan Labs) were used in all experiments. Rats were housed in temperature (23[…]3° C.) and light (12:12 light: dark; lights on at 0700 hr) controlled rooms with standard rodent chow and water available ad libitum. Behavioral testing was performed during the light cycle. Approval of the Institutional Animal Care and Use Committee at University of Colorado was obtained for all procedures.
The schedule for morphine treatment (via subcutaneous injections) was as follows: Day 1: 5 mg/kg at 1000 hr, 5 mg/kg at 1300 hr, 5 mg/kg at 1700 hr; Day 2: 5 mg/kg at 1000 hr, 12.5 mg/kg at 1700 hr; Day 3: 15 mg/kg at 1000 hr; Day 4: 17.5 mg/kg at 1000 hr; Day 5: 5 mg/kg at 1000 hr, 17.5 mg/kg at 1200 hr.
The withdrawal signs measured were: (1) abnormal posturing (an animal presses his abdomen and lower jaw against the floor of the cage); (2) exploration (an animal circles around the cage, thrusting its head in several directions and examining its surroundings); (3) jumping; (4) cleaning (grooming); (5) rearing (an animal stands on its hindpaws with the forepaws off the ground).
Withdrawal scores were measured by blinded observers in 10 minute blocks for 60 minutes immediately after naloxone precipitated withdrawal was initiated. […]

CC(C)C(=O)c1c(C(C)C)nn2ccccc12 [ibudilast, 2-methyl-1-(2-(1-methylethyl)pyrazolo(1,5-a)pyridin-3-yl)1-propanone]
dopamine release into the nucleus accumbens in response to morphine ([1]; 7.5 mg/kg b.i.d. co-administered with morphine across 5 days, FIG. 3): suppressed release of dopamine into the nucleus accumbens in response to morphine | basal levels of dopamine ([1]; 7.5 mg/kg b.i.d., baseline samples): did not decrease basal levels of dopamine | nucleus accumbens dopamine levels ([2]; during naloxone precipitated opioid withdrawal, FIG. 10): reduced nucleus accumbens dopamine levels | nucleus accumbens dopamine levels ([2]; following morphine administration, spontaneous opioid withdrawal, FIG. 11): also reduced nucleus accumbens dopamine levels | morphine induced nucleus accumbens dopamine increases ([2]; morphine-dependent animals, during morphine administration and withdrawal, FIGS. 10 and 11): dramatically reduced morphine induced nucleus accumbens dopamine increases | total withdrawal score ([3]; high dose 7.5 mg/kg i.p. bid, FIG. 2B, 2D): remarkably attenuated behavioral signs of withdrawal | total withdrawal score ([3]; low dose 2.5 mg/kg i.p. bid, vs saline controls, FIG. 2C): no effect compared to saline controls
